Laboratory results published in US20090170869A1, “PIPERAZINE DERIVATIVE HAVING AFFINITY FOR THE HISTAMINE H3 RECEPTOR” (priority 2007, published 2009).
Where a name gives a salt, the structure may show the parent alone.

Key:
[1] = target: T1, brain histamine H3 receptor (Rattus norvegicus, UniProt Q9QYN8); experiment: Rat ex vivo binding studies - rat brain histamine H3 receptor occupancy ([3H]-R-α-methylhistamine); assay type: in vivo; details: for inhibition of [3H]-R-α-methylhistamine specific binding to the H3 receptor (surrogate for rat brain H3 receptor occupancy): 10 mg/kg oral; for specific binding of [3H]-R-α-methylhistamine to the H3 receptor: rats n=3, 10 mg/kg oral, mean ± SEM
T1 construct: from tissue; host or cells: cerebral cortex homogenate of adult male Lister hooded rats
T1 sequence (Q9QYN8 whole entry): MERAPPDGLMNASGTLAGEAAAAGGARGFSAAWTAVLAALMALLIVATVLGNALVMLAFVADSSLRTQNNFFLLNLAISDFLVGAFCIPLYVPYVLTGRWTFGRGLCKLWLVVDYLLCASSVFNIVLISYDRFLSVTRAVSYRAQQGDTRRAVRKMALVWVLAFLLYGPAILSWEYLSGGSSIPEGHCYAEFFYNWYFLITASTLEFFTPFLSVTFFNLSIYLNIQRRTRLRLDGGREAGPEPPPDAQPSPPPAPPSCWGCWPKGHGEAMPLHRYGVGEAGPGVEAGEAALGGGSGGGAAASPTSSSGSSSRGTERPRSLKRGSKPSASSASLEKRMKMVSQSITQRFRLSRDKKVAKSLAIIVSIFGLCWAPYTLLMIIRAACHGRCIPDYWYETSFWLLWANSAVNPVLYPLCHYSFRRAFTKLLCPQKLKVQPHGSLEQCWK
Description: Ex vivo binding studies were carried out to determine brain histamine H3 receptor occupancy in rats at certain time points after oral administration of a test compound.
Adult male rats (Lister hooded 200-250 g, Charles River, UK) received vehicle (1% w/v aqueous methylcellulose) (control) or the test compound (10 mg/kg) by oral gavage (n=3 per group) and were sacrificed 1 or 4 hours following oral dosing. The 1 hour and 4 hour studies were not necessarily done on the same day. Terminal blood samples were collected and brains rapidly removed. Cerebral cortex tissue was dissected from half of each brain for ex vivo binding; the other half brain can be used for pharmacokinetic analysis of brain concentrations of each compound. All dissected tissue samples were snap-frozen in liquid nitrogen, and stored at −80° C. until use. The tissues were rapidly thawed and homogenised in approximately 30 volumes of ice cold assay reaction buffer. The assay reaction buffer contained 50 mM Tris-HCl (made up using Trizma pre-set crystals pH 7.7 @25° C., Sigma cat. No. T8068-250G) and 5 mM EDTA, with a final buffer pH of 7.2 to 7.8, usually about 7.4. The crude homogenate (600-800 μg/well) was then used to measure H3 receptor binding using [^3H]-R-α-methylhistamine as radioligand. Assays measuring total binding of [^3H]-R-α-methylhistamine consisted of 50 μl assay reaction buffer, 400 μl of homogenate (corresponding to 600-800 μg/well) and 50 μl of 2 nM R(−)α-Methyl[imidazole-2,5(n)-3H]histamine dihydrochloride ([^3H]-R-α-methylhistamine; specific activity, 24 Ci mmol^−1, Amersham Biosciences, catalogue no. TRK1017). Incubations with [^3H]-R-α-methylhistamine were for 45 min at 30° C. Non-specific binding of [^3H]-R-α-methylhistamine was determined in parallel using the same assay except that 50 μl of 10 μM imetit (an H3 receptor agonist, e.g. available from Tocris) was used instead of the 50 μl of assay reaction buffer. The experiments were terminated by rapid filtration through Whatman GF/B filters (pre-soaked in 0.3% v/v polyethyleneimine (PEI)), and then the filters were washed through with 4×5 ml of ice cold harvesting buffer. The harvesting buffer contained 50 mM Tris-HCl (from Trizma pre-set crystals pH 7.7 @ 25° C.) and 5 mM MgCl2, with a final buffer pH of 7.2 to 7.8, usually about 7.4. Filters were dried and added to vials each containing 4 ml Ultima Gold MV scintillation fluid (Hewlett Packard) and radioactivity determined by liquid scintillation spectrometry using a Packard Tri-Carb 2500TR liquid scintillation counter.
Specific binding of [^3H]-R-α-methylhistamine to the H3 receptor was determined by the subtraction of the value obtained for non-specific binding from the value obtained for total binding.
Protein concentrations were determined using the Bradford assay method (Bio-Rad
Protein Assay Dye Reagent Concentrate, catalogue no. 500-0006; from Bio-Rad Laboratories GmbH, Heidemannstrasse 164, 80939 Muenchen, Germany; or from Bio-Rad, York, UK) with bovine serum albumin as a standard. Specific radioactivity in the samples was corrected for protein (i.e. per microgram of protein).
The specific binding of [^3H]-R-α-methylhistamine to the H3 receptor is expressed as a mean (n=3 rats)±SEM (standard error of the mean), as a percentage of vehicle-treated control animals. Data is also expressed as inhibition of [^3H]-R-α-methylhistamine specific binding to the H3 receptor, as a surrogate measure for H3 receptor occupancy by the test compound, calculated as 100% minus the % mean specific binding of [^3H]-R-α-methylhistamine to the H3 receptor.

[2] = Plasma clearance in the pig-PET study; assay type: in vivo; details: Yorkshire-Landrace, iv, 50 ug/kg, 50 micrograms/kg i.v.
H3 receptor = H3 receptor (Sus scrofa, UniProt A0A287B9V8); experiment: Pig-PET study with [11C]GSK189254: pig brain H3 receptor occupancy over time and kon-koff limited model; details: 50 micrograms/kg i.v.; for Measured H3 receptor occupancy @ 10 min: 10 minutes post administration; for Measured H3 receptor occupancy @ 2.5 h: 2.5 hours post administration; for Measured H3 receptor occupancy @ 6 h: 6 hours post administration; for Kd: Kd (koff/kon); for koff: iv; for koff / kon: Salt B
H3 receptor, sequence (A0A287B9V8 1-448): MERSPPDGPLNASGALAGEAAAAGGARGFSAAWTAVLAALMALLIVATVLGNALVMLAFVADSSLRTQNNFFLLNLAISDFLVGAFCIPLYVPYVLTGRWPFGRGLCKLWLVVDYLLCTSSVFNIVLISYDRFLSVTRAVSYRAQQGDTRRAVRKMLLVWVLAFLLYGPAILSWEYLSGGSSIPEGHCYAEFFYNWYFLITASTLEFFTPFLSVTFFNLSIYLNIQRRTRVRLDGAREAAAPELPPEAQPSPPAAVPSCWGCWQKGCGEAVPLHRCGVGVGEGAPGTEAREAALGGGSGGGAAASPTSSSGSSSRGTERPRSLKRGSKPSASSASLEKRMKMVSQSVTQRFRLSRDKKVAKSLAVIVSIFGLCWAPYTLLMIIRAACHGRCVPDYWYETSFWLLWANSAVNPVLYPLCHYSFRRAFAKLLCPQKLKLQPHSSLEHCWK

histamine H3 receptor = target: T2, histamine H3 receptor (Rattus norvegicus, UniProt Q9QYN8); details: following oral administration to the rat; Medhurst et al. 2007; cited from earlier work
T2 construct: host or cells: rat cortex
T2 sequence (Q9QYN8 whole entry): as the sequence (Q9QYN8 whole entry) above

rats = details: at certain oral doses; passive avoidance, water maze, object recognition, attentional set shift; Medhurst et al. 2007; cited from earlier work
rodent models = details: five choice task, object recognition, elevated plus maze, acquisition of novel task, passive avoidance; literature reports; cited from earlier work
[3] = Preliminary HCl-salt-formation and crystallisation experiments (crystal form stability); assay type: physicochemical; details: hydrochloride salt crystal forms; without being bound by theory
Description: Crystalline Form 1 (or a predominance of crystalline Form 1) is often formed initially depending on the conditions, but, depending on the conditions (such as the type of solvent and the solubility of crystalline Form 1 in it, and/or the temperature and/or temperature time course, and/or the contact time of the crystalline Form 1 with the solvent), the crystalline Form 1 can then often convert to crystalline Form 2 to a greater or lesser extent when in contact with a suitable solvent i.e. a solvent suitable for converting crystalline Form 1 to crystalline Form 2.

[4] = mean ± standard deviation, n=3 pigs
[5] = average model (from average plasma data and average occupancy)

## CC(C)N1CCCN(C(=O)c2ccc(OC3CCOCC3)cc2)CC1 [Salt B, reference compound]
[1]; 1 hour after dosing
  inhibition of [3H]-R-α-methylhistamine specific binding to the H3 receptor (surrogate for rat brain H3 receptor occupancy): about 60%
[1]; 4 hours after dosing
  inhibition of [3H]-R-α-methylhistamine specific binding to the H3 receptor (surrogate for rat brain H3 receptor occupancy): about 12%
[1]; sacrificed 1 hour after dosing
  specific binding of [3H]-R-α-methylhistamine to the H3 receptor: 40%+4%
[1]; sacrificed 4 hours after dosing
  specific binding of [3H]-R-α-methylhistamine to the H3 receptor: 88%+6%
[2]; average model (from average plasma data)
  clearance: 48.3 mL/min
[2]; mean of pigs 1-3
  clearance: 46.7 mL/min
[2]; pig 1
  clearance: 60 mL/min
[2]; pig 2
  clearance: 30 mL/min
[2]; pig 3
  clearance: 46.7 mL/min
H3 receptor; [4]
  Measured H3 receptor occupancy @ 10 min: 63% ± 10%
  Measured H3 receptor occupancy @ 2.5 h: 37% ± 16%
  Measured H3 receptor occupancy @ 6 h: 33% ± 4%
H3 receptor; pig 1
  Measured H3 receptor occupancy @ 10 min: 51%
  Measured H3 receptor occupancy @ 2.5 h: 19%
  Measured H3 receptor occupancy @ 6 h: 30%
H3 receptor; pig 2
  Measured H3 receptor occupancy @ 10 min: 69%
  Measured H3 receptor occupancy @ 2.5 h: 49%
  Measured H3 receptor occupancy @ 6 h: 32%
H3 receptor; pig 3
  Measured H3 receptor occupancy @ 10 min: 68%
  Measured H3 receptor occupancy @ 2.5 h: 43%
  Measured H3 receptor occupancy @ 6 h: 38%
H3 receptor; [5]
  Kd: 5.2 nM
  kon: 0.0025 min⁻¹
H3 receptor; mean of pigs 1-3
  Kd: 4.76 nM
  kon: 0.0024 min⁻¹
H3 receptor; pig 1, in vivo PK/RO model
  Kd: 5.6 nM
H3 receptor; pig 2, in vivo PK/RO model
  Kd: 5.05 nM
H3 receptor; pig 3, in vivo PK/RO model
  Kd: 3.61 nM
H3 receptor; PIG1, pig, pig 1, estimated model parameter
  koff: 5.5e-05 s⁻¹
H3 receptor; pig 1, estimated model parameter
  kon: 0.0017 min⁻¹
H3 receptor; pig 2, estimated model parameter
  kon: 0.0024 min⁻¹
H3 receptor; pig 3, estimated model parameter
  kon: 0.0031 min⁻¹
H3 receptor; pig, average model (from average plasma data and average occupancy)
  koff: 7.5e-05 s⁻¹
H3 receptor; pig, mean of pigs 1-3
  koff: 6.33e-05 s⁻¹
H3 receptor; pig, pig 2, estimated model parameter
  koff: 7e-05 s⁻¹
H3 receptor; pig, pig 3, estimated model parameter
  koff: 6.5e-05 s⁻¹

## CNC(=O)c1ccc(Oc2ccc3c(c2)CCN(C2CCC2)CC3)nc1 [GSK189254]
Histamine H3 receptor
  [3H]R-α-methylhistamine ex vivo binding in the rat cortex: inhibited
rats
  performance of rats in cognition paradigms: improved performance

## S=C(NC1CCCCC1)N1CCC(c2cnc[nH]2)CC1 [thioperamide]
Rodent models
  cognitive effect in rodent models: cognitive enhancing properties

## O=C(c1ccc(OCCCc2cnc[nH]2)cc1)C1CC1 [ciproxifan]
Rodent models
  cognitive effect in rodent models: cognitive enhancing properties

## NC(=NCc1ccc(Cl)cc1)SCCCc1cnc[nH]1 [clobenpropit]
Rodent models
  cognitive effect in rodent models: cognitive enhancing properties

## CC(C)N1CCN(C(=O)c2ccc(OC3CCOCC3)cc2)CC1 [Example 3]
[3]
  thermodynamic stability relative to crystalline Form 1: more thermodynamically stable than crystalline Form 1

## CC(C)(C)CCC#C[C@@H]1C[C@H]1c1c[nH]cn1 [GT-2331]
Rodent models
  cognitive effect in rodent models: cognitive enhancing properties
